Test results as given in US20110112010A1, “OCTANOIC ACID FORMULATIONS AND METHODS OF TREATMENT USING THE SAME” (The Government of the United States of America, as …, priority 2008, published 2011).
One block for each molecule: values may come before it.

Assays:
Essential Tremor [1] = test: Tremor assessment by digitized Archimedes spirals after oral 1-octanol; format: in vivo, human
Method: Subjects: All subjects underwent a routine medical screening and neurological examination. A structured ethanol challenge was carried out to confirm tremors were ethanol-responsive. Subjects were videotaped at 0, 15, 30, 45, 60, and 75-minutes after receiving two servings (50-ml each) of 40% ethanol along with digitized spirography measures. Ethanol-responsive subjects then completed either a dose titration (1-64 mg/kg) inpatient study or a fixed dose (64 mg/kg) inpatient study to characterize the pharmacokinetics of 1-octanol and its predicted primary metabolite octanoic acid (OA). Tremor Assessment: To assess efficacy, subjects drew Archimedes spirals at fixed intervals on a digitizing tablet with an overlaid spiral guide. We used in-house analysis software to process the data before conducting a fast Fourier transform of tremor velocity to obtain our frequency and power measures.

[2] = Pharmacokinetics of oral 1-octanol and its metabolite octanoic acid in plasma of adults with Essential Tremor; format: in vivo, human
Method: Subjects: All subjects underwent a routine medical screening and neurological examination. A structured ethanol challenge was carried out to confirm tremors were ethanol-responsive. Subjects were videotaped at 0, 15, 30, 45, 60, and 75-minutes after receiving two servings (50-ml each) of 40% ethanol along with digitized spirography measures. Ethanol-responsive subjects then completed either a dose titration (1-64 mg/kg) inpatient study or a fixed dose (64 mg/kg) inpatient study to characterize the pharmacokinetics of 1-octanol and its predicted primary metabolite octanoic acid (OA). Plasma Sampling: During the inpatient study, subjects received oral 1-octanol followed by collection of plasma samples at the following intervals: 5, 20, 45, 70, 100, 130, 160, 210, 270 and 360-minutes post-dose. Samples were processed then batch analyzed using high-performance liquid chromatography and mass spectrometry methods to measure concentrations of 1-octanol and OA.

Essential Tremor [3] = conditions: humans with Essential Tremor; Bushara 2004, Shill 2004; cited from earlier work
[4] = system: hereditary essential tremor; conditions: patients with hereditary essential tremor; Brain 1994, 117: 805-824; cited from earlier work
harmaline-induced tremor = test: Harmaline mouse model of essential tremor (motion power percentage); format: in vivo; conditions: male ICR mice, harmaline 20 mg/kg s.c., octanoic acid i.p. in PEG-300
Text: The harmaline model of essential tremor: Harmaline is a beta-carboline alkaloid that produces action tremor on systemic administration to mammals (see Llinas et al., Exp Brain Res 18:69 (1973)). […] Harmaline thus acts within the olivo-cerebellar system to produce tremor and can be used as a model to assess potential ET therapies (see Martin et al., Mov. Disord. 20:298 (2005)).
Animals: Male ICR mice (20-24 g) from Harlan (Indianapolis, Ind.) were housed in groups in standard cages with ad libitum access to commercial rodent diet and water.
Tremor measurement: Motion activity was measured with a Convuls-1 Replacement Sensing Platform model 1335-1A (Columbus Instruments, Columbus, Ohio), a metal platform with a load sensor beneath it, that is connected to a Grass model P511 AC amplifier (Grass Instruments, West Warwick, R.I.) with 1 and 70 Hz filter settings. Digitally recorded motion power was analyzed using Cambridge converter and software. Data was sampled at 128 Hz. The total motion power for each 20-minute epoch was calculated between 0 and 34 Hz (full motion spectrum) and between 10 and 16 Hz (the harmaline tremor frequency bandwidth); and the motion power percentage (10-16 Hz power)/(0-34 Hz power)×100 then calculated. This percentage is expressed as motion power percentage (MPP). […]

Structure (SMILES): CCCCCCCCO [1-octanol]
- peak tremor reduction from baseline (Essential Tremor [1]; at 120 minutes post-dose): 42%
- persistence of tremor-reducing effect (Essential Tremor [1]; last timepoint 360 minutes): > 360 min
- 1-octanol concentration as a function of oral dose ([2]; oral 1-octanol dose titration 1-64 mg/kg): remained at very low basal levels until the 64 mg/kg dose
- safety and tremor suppression in early human studies (Essential Tremor [3]): safe and effective at tremor suppression

Structure (SMILES): CCO [ethanol]
- proportion of patients in whom treatment was effective [4]: 50%

- OA plasma half-life ([2]; human, in vivo, po): approximately 74 minutes
- earliest time at which OA plasma concentrations were detectable post-dose ([2]; human, in vivo, po): 5 min
- persistence of OA plasma levels following administration ([2]; human, in vivo, po): up to 6 hours
Structure (SMILES): CCCCCCCC(=O)O [octanoic acid]
- suppression of harmaline-induced tremor (harmaline-induced tremor): suppressed harmaline-induced tremor in a dose dependent fashion
